Laboratory results as given in PMC8538057, “Direct Delivery of ANA-TA9, a Peptide Capable of Aβ Hydrolysis, to the Brain by Intranasal Administration” (Pharmaceutics, 2021).
Ends that are not written are not given here.

Columns and labels:
[1] = In vitro stability in the cerebrospinal fluid; type: in vitro ADME; conditions: cerebrospinal fluid (CSF), rat CSF, 37 °C, LC/MS without treatment, three experiments
Method: After the anesthetization of rats with an i.p. application of the anesthetic mixture, the cerebrospinal fluid (CSF) was collected by cisternal puncture, followed by the collection of whole blood from the polyethylene cannula inserted into the right femoral artery. The blood was heparinized and centrifuged at 15,000 rpm for 10 min at 4 °C, and the supernatant was collected as plasma.
ANA-TA9 was dissolved in PBS at a concentration of 0.1 mg/mL or 1 mg/mL. Immediately before the incubation, 5 μL or 10 μL of the ANA-TA9 solution was added to 45 μL or 90 μL of CSF or plasma, respectively. Similarly, 10 μL of the ANA-TA9 solution was added to 90 μL of whole blood. At predetermined times after the incubation at 37 °C, the samples were cooled by placing them on ice. Methanol (1 mL) was added to the plasma and whole blood for deproteinization. The mixtures were then vortexed and centrifuged at 15,000 rpm for 5 min at 4 °C. […] The concentrations of ANA-TA9 in the plasma and whole blood were measured by LC/MS. The ANA-TA9 concentrations were measured in the CSF samples by LC/MS without any treatments.
Chromatographic separation was performed using a C18 analytical column (TSKgel ODS 100V, 3 μm, 2.0 mm × 100 mm; TOSOH, Tokyo, Japan). […] ANA-TA9 eluting from the column was detected with mass spectrometry under the positive mode. […] The calibration curves of ANA-TA9 in the plasma and the brain were determined.

[2] = Degradation of ANA-TA9 in the rat nasal cavity (nasal perfusion); type: in vivo; conditions: 15 mL PBS at 10 μg/mL, 120 min, LC/MS, mean of three experiments
Method: Polyethylene tubing was inserted into the rat esophagus and trachea according to the method of Hirai et al.. Briefly, under anesthesia with the anesthetic mixture described in Section 2.3.2, the trachea was cannulated with polyethylene tubing, and another tube was inserted from the esophagus to the posterior part of the nasal cavity. The nasopalatine was closed with surgical adhesive. A solution of ANA-TA9 (15 mL PBS at 10 μg/mL) was perfused from the esophagus through the nasal cavity using a peristaltic pump (SJ-1211-H; ATTO, Tokyo, Japan). The perfusing solution of ANA-TA9 was sampled at predetermined times. The ANA-TA9 concentration in the perfusate was measured by liquid chromatography-mass spectrometry (LC/MS) after the same pretreatment as that of the plasma described in Section 2.4.2.

in vivo = assay: in vivo; design: species or system male Wistar/ST rats; conditions: male, Wistar/ST, rat, 2 mg
Method: ANA-TA9 diluted in PBS was administered to the left nostril of male Wistar/ST rats (n = 3) at a dose of 2 mg (20 μL of 100 mg/mL). For the comparison, i.v. administration served as the control for i.n. administration. The same dose of ANA-TA9 ([…] of a 10 mg/mL PBS solution) was administered into the left femoral vein of 3 rats. CSF was collected 10 min after i.n. administration by cisternal puncture. An incision was made in the skin over the occipital bone, and the first layer of the muscle was cut. The sharp end of a 25-G needle connected to PE-50 tubing (1 m length) was carefully inserted into the cisterna magna. CSF was withdrawn into the tubing with a disposable syringe. Collection was terminated as soon as blood appeared in the tubing. CSF in the tubing was ejected into a ProteoSave SS 1.5 mL microtube (Sumitomo Bakelite Co., Ltd., Tokyo, Japan) and frozen at −40 °C. The CSF volumes ranged between 100 and 150 μL (n = 6). The plasma and brain concentrations of ANA-TA9 were determined by LC/MS, LC-20A, and LCMS-2020 (SHIMADZU, Kyoto, Japan). Briefly, 100 μL of the plasma were mixed with 1000 μL of methanol. […] To the dissected brain tissue, 100 μL of ice-cold purified water were added, and the mixture was homogenized under ice-cold conditions. To the homogenate, 4000 μL of ice-cold methanol were added. […] The residues were reconstituted with 100 μL of the mobile phase of the chromatography. In the preliminary study, it was confirmed that the effect of rapid degradation of ANA-TA9 on the assay could be excluded by the treatment on the blood and brain tissues mentioned above. Chromatographic separation was performed using a C18 analytical column (TSKgel ODS 100V, 3 μm, 2.0 mm × 100 mm; TOSOH, Tokyo, Japan). The mobile phase was acetonitrile/0.1% acetic acid (10/90), and the flow rate was 0.2 mL/min. ANA-TA9 eluting from the column was detected with mass spectrometry under the positive mode. Nitrogen gas was used for nebulization at a flow rate of 1.5 L/min. […] The calibration curves of ANA-TA9 in the plasma and the brain were determined.

Aβ42 = conditions: also three Aβ fragment peptides, particularly Aβ11–29; cited from earlier work
From the text: Recently, we reported the proteolytic activity of the shorter synthetic peptides JAL-TA9 (YKGSGFRMI) and ANA-TA9 (SKGQAYRMI), derived from the Box A region of the Tob1 and ANA/BTG3 proteins. These peptides cleave Aβ42 and three Aβ fragment peptides, particularly Aβ11–29 originating from the central region, which is considered the core region of Aβ42 aggregation/oligomerization. We gave these peptides the general name Catalytide. Catalytides such as JAL-TA9 and ANA-TA9 are attractive candidate peptide drugs for a novel strategy for preventing and treating AD.

remaining at 0.5 h ([1]; 5 μL ANA-TA9 PBS solution (0.1 mg/mL or 1 mg/mL) added to 45 μL CSF, 30 min, read-out: CSF concentration remaining at 30 min after the start of the incubation): 74%
remaining at 2 h ([1]; 5 μL ANA-TA9 PBS solution added to 45 μL CSF, 2 h, read-out: CSF concentration remaining at 2 h after the start of the incubation): 46%
concentration in the nasal perfusate, % of the initial concentration [2]: 54%
level at 10 min (in vivo; inhaled or intranasal, CSF concentration 10 min after i.n. administration): 72 ± 6 ng/mL
level at 10 min (in vivo; inhaled or intranasal, plasma concentration 10 min after i.n. administration): 24 ± 5 ng/mL
level at 10 min (in vivo; iv, plasma concentration 10 min after i.v. administration): 10 ± 1 ng/mL
Sequence: SKGQAYRMI [ANA-TA9]
cleavage of Aβ42 (proteolytic activity) (Aβ42): cleave Aβ42
